Measurements from patent publication US20250020635A1, “ASSAY METHODS AND USES THEREOF FOR SCREENING ALZHEIMER'S DISEASE TREATMENT COMPOUNDS” (priority 2023, published 2025).

What was measured:
His-PLCγ2 protein = target: T1, His-PLCγ2 protein (Homo sapiens, UniProt P16885); experiment: Affinity selection mass spectrometry (ASMS); type: binding; conditions: dose range 100-0.05 μM, PLCγ2 400 nM
T1 sequence (P16885 1-1265): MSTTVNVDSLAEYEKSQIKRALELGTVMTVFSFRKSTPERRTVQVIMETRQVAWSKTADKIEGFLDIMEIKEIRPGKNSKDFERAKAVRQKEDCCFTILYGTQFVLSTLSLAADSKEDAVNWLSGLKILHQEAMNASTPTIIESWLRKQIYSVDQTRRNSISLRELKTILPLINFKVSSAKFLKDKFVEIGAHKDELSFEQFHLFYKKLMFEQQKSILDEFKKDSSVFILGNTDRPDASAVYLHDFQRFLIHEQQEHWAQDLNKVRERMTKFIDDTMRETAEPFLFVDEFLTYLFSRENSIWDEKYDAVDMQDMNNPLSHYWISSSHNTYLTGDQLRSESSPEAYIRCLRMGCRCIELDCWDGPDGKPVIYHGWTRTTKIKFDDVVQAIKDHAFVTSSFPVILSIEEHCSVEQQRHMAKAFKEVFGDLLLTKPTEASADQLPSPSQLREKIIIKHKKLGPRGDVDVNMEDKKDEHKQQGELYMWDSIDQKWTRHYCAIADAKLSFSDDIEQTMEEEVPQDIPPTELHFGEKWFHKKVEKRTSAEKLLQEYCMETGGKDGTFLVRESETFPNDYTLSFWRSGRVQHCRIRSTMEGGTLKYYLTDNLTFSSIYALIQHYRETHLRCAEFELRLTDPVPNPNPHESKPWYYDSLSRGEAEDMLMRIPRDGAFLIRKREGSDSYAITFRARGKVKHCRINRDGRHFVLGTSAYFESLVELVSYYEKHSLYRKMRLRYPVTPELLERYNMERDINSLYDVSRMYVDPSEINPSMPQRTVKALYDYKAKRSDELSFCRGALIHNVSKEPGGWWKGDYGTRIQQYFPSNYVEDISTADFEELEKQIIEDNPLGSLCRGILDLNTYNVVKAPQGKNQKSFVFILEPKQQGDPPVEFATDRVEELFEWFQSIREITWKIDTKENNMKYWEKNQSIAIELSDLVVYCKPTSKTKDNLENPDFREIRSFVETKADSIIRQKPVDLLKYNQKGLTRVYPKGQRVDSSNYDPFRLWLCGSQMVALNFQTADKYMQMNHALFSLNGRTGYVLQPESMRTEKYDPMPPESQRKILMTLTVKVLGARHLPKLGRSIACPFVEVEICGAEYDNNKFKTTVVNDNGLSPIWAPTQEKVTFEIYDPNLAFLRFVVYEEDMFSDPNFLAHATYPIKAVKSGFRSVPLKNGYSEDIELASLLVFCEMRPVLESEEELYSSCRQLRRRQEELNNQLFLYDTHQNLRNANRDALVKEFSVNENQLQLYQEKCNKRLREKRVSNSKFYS
Method: Using a dose range of 100-0.05 μM in 384 well low-volume polypropylene microtiter plates, a solution of PLCγ2 (final concentration 400 nM) was transferred to biochip arrays functionalized with a Tris-Ni-NTA-presenting self-assembled monolayer to immobilize the His-tagged protein. The arrays were incubated for 90 min in a humidified chamber to prevent evaporation and allow for specific immobilization of the His-PLCγ2 protein, along with any bound small molecules. The arrays were purified by a rapid <3 second gentle wash step with deionized ultra-filtered water and dried with compressed air. ASMS was performed using the reflector positive mode on an Aβ Sciex TOF-TOF 5800 System (Aβ Sciex, Framingham, MA).

BV2 cells = experiment: Microglial phagocytosis/cell health high-content assay, BV2 cells; type: cell-based; conditions: for Ave. % Cell Count @ 60 uM BV2 cells / Ave. % Phagocytosis @ 60 uM BV2 cells: 48 hrs, compared to control
Method: The assay introduced here is a simplified cellular imaging assay without any fixation and washing steps, while producing multiparameter measurements with high capacity using a 384-well plate format. The assay procedures include plating cells on day 1, incubating cell plates overnight before treating cells on day 2, adding pHrodo™-myelin/membrane debris to cell plates on day 3, and 20 hr later, staining cell nuclei with Hoechst-33342 for 30 min before performing high-content imaging on day 4. Three selected parameters are measured from cells: 1) mean total fluorescence intensity per cell of pHrodo™-myelin/membrane debris in phagocytosis vesicles to quantify phagocytosis; 2) cell counts per well to quantify treatment effects on proliferation and cell death; and 3) average nuclear intensity to quantify treatment-induced nuclear changes such as in apoptosis. The assay has been used on HMC3 cells (an immortalized human microglial cell line), BV2 cells (an immortalized mouse microglial cell line), and primary microglia isolated from mouse brains. For initial assay attempts, we recommend using HMC3 cells available from the ATCC.
All collected raw data are normalized to the untreated control with following formula: % of control=100×(X−Min)/(Max−Min). Factors in the formula are: X is raw data from a treated well, Max is an average measurement from pHrodo™-myelin seeded but untreated wells, and Min is an average measurement from no pHrodo™-myelin untreated wells. Normalized data are used for curve fitting that is done with the variable slope (four parameters) using the Prism software.
To ensure that the measurements reflect the steady state of compound treatment effects and cell health, the assay was set with a total compound treatment time of 48 hr, including pHrodo™-myelin/membrane debris seeding performed 20-24 hr after compound addition. […] Among many available quantitative measurements from the image analysis, we selected three parameters for the assay:
1) The mean total intensity of phagocytosis vesicles/cell—to measure phagocytosis. There are multiple parameters generated from the image analysis, including phagocytosis vesicle area, number, and various fluorescence intensity measurements. Comparing these parameters, the total fluorescence intensity of vesicles/cell is the most sensitive one and was chosen for quantifying phagocytosis.
2) The total cell counts—to measure overall cell viability, which is affected by proliferation and cell death. We chose to take 4 images/well (with the 10× objective lens) that cover about 50% of the total area of a well in a 384-well plate to represent cell count of the well.
3) The average nuclear intensity—to measure drug-induced apoptosis, with high signal indicating nuclear condescension (a sign of early apoptosis) and low signal indicating DNA degradation (a sign of later apoptosis, when activated caspases digest DNA).
A phenotypic high-content imaging assay with simultaneous measurements of phagocytosis, cell number, and nuclear intensity was used to assess both cellular pharmacology and cell health. Model cell lines BV2 (immortalized mouse microglia, a gift from Dr. Michelle Block's laboratory at IUSM) and HMC3 (immortalized human microglia, obtained from ATCC, CRL-3304) were used to provide adequate throughput. Cells were cultured in DMEM GlutaMax media (ThermoFisher) containing 10% FBS and Pen-Strep in a 37° C. 5% CO2 incubator, plated in Corning Falcon 384 well Optilux Black and clear bottom plates: 400 cells/45 μl/well (BV2 cells), 600 cells/45 μl/well (HMC3 cells) and 2000 cell/45 μl/well (primary cells), and treated with 10× serially diluted compounds (60 μM-3 nM) for 48 hrs at 37° C. […]

[1] = Kinetic solubility in pH 7.4 phosphate buffer; type: physicochemical
Method: (§1) Physicochemical and ADME properties were determined using the following assays: microsomal stability intrinsic clearance (Clint) in mouse liver microsomal solution, MDCK permeability (Papp), protein binding (fu) in mouse plasma, and kinetic solubility in pH 7.4 phosphate buffer (Table 7).

HiBit only = experiment: Cellular thermal shift assay (CETSA), HiBit only control; type: cell-based, human; conditions: for HiBit only %, percent luminescence at highest dose with HiBit only compared to control (DMSO): 100 μM
[2] = Microsomal stability intrinsic clearance; type: in vitro ADME; conditions: mouse liver microsomes
Method: as §1

MDCK = MDCK permeability; type: in vitro ADME; conditions: estimate of intestinal absorption
Method: as §1

[3] = Protein binding in mouse plasma; type: in vitro ADME
Method: as §1

SMILES	target engagement, signal against background (His-PLCγ2 protein)	Ave. % Cell Count @ 60 uM BV2 cells (BV2 cells) [%]	Ave. % Phagocytosis @ 60 uM BV2 cells (BV2 cells) [%]	Kinetic solubility [1] [µM]	HiBit only %, percent luminescence at highest dose with HiBit only compared to control (DMSO) (HiBit only) [%]	HiBit only % @100 μM (HiBit only; Table 1, @100 μM) [%]	Clint, intrinsic clearance [2] [µL/min/mg]	Papp, MDCK permeability (MDCK)	fu, fraction unbound [3]	phagocytosis increase against cell count decline (BV2 cells; HMC3 and BV2 cells (Table 6, FIGS. 21, 22))
Cc1cc(C)c(S(=O)(=O)Nc2cccc(C(F)(F)F)c2)c(C)c1 [Compound 1, 2,4,6-trimethyl-N-(meta-3-trifluoromethyl-phenyl)-benzenesulfonamide, reference compound]	neither 1 or 2 indicated substantial evidence of target engagement	2	0.05	21 to 40						
Cc1cc(C)c(S(=O)(=O)Nc2ccccc2C(F)(F)F)c(C)c1 [Compound 2, o-3M3FBS, reference compound]	neither 1 or 2 indicated substantial evidence of target engagement	104	104							
O=S(=O)(Nc1ccc(Br)cc1F)c1cccs1 [Compound 8]		86	114	>100	44	44	77.83	95.0 ×10−^6 cm/s	0.0193	
Cc1cc(C)c(S(=O)(=O)NC2CCCNC2)c(C)c1 (stereo not shown) [Compound 11]		63	225		93					moderate degree of potential cytotoxicity
